The source of these data is patent US4454158A, “Allyl amine MAO inhibitors” (Merrell Toraude et Compagnie, priority 1981, dated 1984).

Structures are written as SMILES. Where two headings read alike, the source gives them in different places.

Series [1] relates to MAO. The series is described as follows: Inhibition of MAO - In vivo: change in levels of endogenous MAO substrates and metabolites in mouse brain. Particulars: 10 mg/kg ip, 2 hr. Further details: species or system mice. The method, then:
The ability of a compound of Formula I or II to inhibit MAO can be determined in vivo in mice according to the following procedure, wherein changes in concentration of the endogenous MAO substrates and the metabolites thereof are assayed.
Mice are given an intraperitoneal injection of the test compound and 2 hours or 16 hours later the animals are killed. The levels of dopamine, dihydroxyphenylacetic acid (DOPAC), 5-hydroxytryptamine (5-HT), and 5-hydroxyindole-3-acetic acid (5-HIAA) in brain homogenates are determined by the method of J. Wagner et al, J. Chromatog. 164, 41 (1979) and P. Bey et al, Br. J. Pharmac., 70, 571 (1980).

The subject of series [2] is cheese effect. Particulars: low dosages; literature; cited from earlier work.
In series [3] the test system is depression. The settings on record: literature; cited from earlier work.
Series [4] relates to heart rate response to p-tyramine. Briefly: Cheese effect: potentiation of heart-rate response to p-tyramine in rats. Particulars: rat.
Method: (§1) The following test procedure can be employed to assess the potential of a compound of Formula I or II for producing the "cheese effect":
(§2) Rats are administered an intravenous injection of the test compound at various dosage levels, and 30 minutes later the rats are challenged with several intravenous or intraduodenal dodes of p-tyramine. The heart rate response is measured.
Series [5] concerns MAO. Briefly: Inhibition of MAO - Ex vivo, rat (14C p-tyramine substrate). The class given is in vivo. Particulars: for % Inhibition of MAO - Duodenum / % Inhibition of MAO - Heart: 2 hr; for % Inhibition of MAO - Brain: 18 hr. The method, then: The ability of a compound of Formula I or II to inhibit MAO can be determined ex vivo by the following procedure:
The test compound is administered intraperitoneally (ip), intravenously (iv), or orally (po) to rats or mice and the animals are killed at various times after treatment. […] MAO activity is determined in the homogenates using ^14 C p-tyramine, as the substrate. […] Selectivity can be determined by repeating the above-described test using either ^14 C 5-hydroxytryptamine (for MAO-A) or ^14 C phenethylamine (for MAO-B) as the substrate for determining the % inhibition

The subject of series [6] is Parkinson's disease. The settings on record: literature; cited from earlier work.
The subject of series [7] is MAO. Briefly: Inhibition of MAO - In vitro (14C p-tyramine substrate, partially purified rat brain mitochondria). Particulars: tested as hydrochloride salt, read-out: IC50 (MAO inhibitory activity - In vitro). Format: biochemical. An excerpt: (A) The ability of a compound of Formula I or II to inhibit MAO can be determined in vitro by the method of A. Christmas et al, Br. J. Pharmacol. 45, 490 (1972) in partially purified mitochondria from rat brain using ^14 C p-tyramine as the substrate.

Series [8] concerns MAO. Briefly: Time-dependence and reversibility of MAO inhibition (rat brain mitochondria, 14C p-tyramine). Format: biochemical. The settings on record: phosphate buffer pH 7.2, 14C p-tyramine. The method, then: (B) The compounds of Formula I or II can be tested to determine whether or not the MAO inhibition follows time-dependent kinetics by the procedure described below:
Mitochondria are prepared from rat brain by homogenation in phosphate buffer (0.1 M, pH 7.2) followed by differential centrifugation. The mitochondria are suspended in the same buffer, the test compound is added at the desired concentration, and the system is incubated. At different time intervals, aliquots are taken and MAO activity is measured using ^14 C p-tyramine (a mixed substrate) as the substrate (See A. Christmas, et al, supra). When the compounds shown in Table I were tested according to the above-described procedure, the MAO inhibitory activity increased as a function of time of incubation. The initial rate of decrease of activity increased with increasing concentration of inhibitor.

The subject of series [9] is MAO-A and MAO-B. The settings on record: literature, cited from earlier work.
Series [10] concerns MAO-B versus MAO-A. Particulars: literature figure; cited from earlier work.
Series [11] deals with heart rate response to p-tyramine. Particulars: rat, in vivo, iv.
Method: as §1, §2

As for `C#CCN(C)[C@H](C)Cc1ccccc1` [L-deprenyl, reference compound], in series [1], the “% Change (compared to control) - 5-HIAA” value was “+9%”, the “% Change (compared to control) - 5-HT” value is “+18%”, the “% Change (compared to control) - DOPAC” value is listed as -21% and the “% Change (compared to control) - Dopamine” value is “+10%”. The “cheese effect (in words)” value in series [2] was “is not observed at the low dosages where preferential inhibition of MAO-B occurs”. For the same compound, the “clinical effectiveness as antidepressant (in words)” value (“clinical effectiveness” for short) in [3] is on record as “clinically effective antidepressant agents”. The “Potentiation of heart-rate response to p-tyramine” value (“Potentiation … to p-tyramine” for short) in [4] (dose 0.1 (iv), p-tyramine i.d.) is given as “no effect”. In [4] (dose 0.1 (iv), p-tyramine i.v.), the “Potentiation … to p-tyramine” value worked out at 1.3 fold. Moreover, the “Potentiation … to p-tyramine” value in series [4] (dose 1.0 (iv), p-tyramine i.d.) is 2.1 fold. In series [4] (dose 1.0 (iv), p-tyramine i.v.), the “Potentiation … to p-tyramine” value is recorded as 2.2 fold. Further, in series [5] (1.0 mg/kg po), the “% Inhibition of MAO - Duodenum” value is listed as 62% and the “% Inhibition of MAO - Heart” value is 48%. Besides, the “potentiation of L-DOPA in Parkinson's disease (in words)” value in series [6] was “potentiate L-DOPA for the treatment of Parkinson's disease without producing peripheral side effects”.

The IC50 is the midpoint of a concentration-inhibition curve. `NC/C(=C\Cl)c1ccccc1` [(Z)-2-phenyl-3-chloroallylamine, (Z)-2-Phenyl-3-chloroallylamine]: the IC50 in series [7] was 500 µM. The time-dependent inhibitory kinetics entry in series [8] was “did not show time-dependent inhibitory kinetics”.

Take `C#CCN(C)Cc1ccccc1` [pargyline]: the “preferential inhibition of MAO-A or MAO-B (in words)” value in series [9] is “MAO-B is preferentially inhibited”. Besides, in [9] (lower vs higher dosages), the “dose-dependence of MAO selectivity (in words)” value is on record as “selective inhibitors at lower dosages, but are not selective inhibitors at higher dosages”. Also, the “Selectivity (ratio of inhibitory activity against MAO-B versus MAO-A)” value in series [10] is given as 10. Besides, the “clinical effectiveness” value in series [3] is “clinically effective antidepressant agents”. For the same compound, in series [7], the 50% inhibitory concentration (IC50) came to 2 µM.

Turning to `C#CCN(C)CCCOc1ccc(Cl)cc1Cl` [clorgyline, reference compound], the “clinical effectiveness” value in [3] is recorded as “clinically effective antidepressant agents”. In addition, the “Potentiation … to p-tyramine” value in series [4] (dose 0.1 (iv), p-tyramine i.d.) worked out at 5.6 fold; in [11], 5.2 fold. In series [7], the concentration for half-maximal inhibition (IC50) turned out to be 0.1 µM. The “% Inhibition of MAO - Duodenum” value in series [5] (0.1 mg/kg iv) came to 87%. Also, in series [5] (0.1 mg/kg iv), the “% Inhibition of MAO - Heart” value is given as 84%. For the same compound, the “% Inhibition of MAO - Brain” value in [5] (1.0 mg/kg po) came to 20%; in [5] (5.0 mg/kg po), 64%.
